What all share (format): functional, cell-based
Assay [1] addresses T1, Taste receptor type 2 member 10 (Homo sapiens) (UniProt Q9NYW0).
T1 sequence (whole entry): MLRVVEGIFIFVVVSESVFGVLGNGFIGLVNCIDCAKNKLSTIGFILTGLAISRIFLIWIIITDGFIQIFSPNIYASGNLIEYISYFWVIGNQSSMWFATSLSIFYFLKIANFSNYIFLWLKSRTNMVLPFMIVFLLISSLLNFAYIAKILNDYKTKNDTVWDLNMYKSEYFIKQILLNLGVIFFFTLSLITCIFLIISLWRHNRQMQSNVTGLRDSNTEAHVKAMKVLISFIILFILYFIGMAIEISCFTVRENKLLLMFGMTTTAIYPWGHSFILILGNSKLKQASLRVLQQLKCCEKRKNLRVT
As to the kind of experiment: Activity at human TAS2R10 expressed in HEK-293T-Galpha16-gustducin44 cells assessed as threshold concentration of compound at which point receptor detects compounds by measuring calcium response by FLIPR assay.

The target in assay [2] is T2, Taste receptor type 2 member 45 (Homo sapiens) (UniProt P59539).
T2 sequence (whole entry): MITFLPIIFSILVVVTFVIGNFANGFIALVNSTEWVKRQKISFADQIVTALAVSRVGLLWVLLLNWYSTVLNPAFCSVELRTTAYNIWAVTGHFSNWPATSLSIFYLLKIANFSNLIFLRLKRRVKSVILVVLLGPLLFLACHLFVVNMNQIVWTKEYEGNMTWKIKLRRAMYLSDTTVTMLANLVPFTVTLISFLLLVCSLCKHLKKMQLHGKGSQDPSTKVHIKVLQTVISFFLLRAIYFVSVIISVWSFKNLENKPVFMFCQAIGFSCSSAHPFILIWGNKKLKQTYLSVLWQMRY
As to the kind of experiment: Activity at human TAS2R45 expressed in HEK-293T-Galpha16-gustducin44 cells assessed as threshold concentration of compound at which point receptor detects compounds by measuring calcium response by FLIPR assay.

For assay [3], the target named is T3, Taste receptor type 2 member 46 (Homo sapiens) (UniProt P59540).
T3 sequence (whole entry): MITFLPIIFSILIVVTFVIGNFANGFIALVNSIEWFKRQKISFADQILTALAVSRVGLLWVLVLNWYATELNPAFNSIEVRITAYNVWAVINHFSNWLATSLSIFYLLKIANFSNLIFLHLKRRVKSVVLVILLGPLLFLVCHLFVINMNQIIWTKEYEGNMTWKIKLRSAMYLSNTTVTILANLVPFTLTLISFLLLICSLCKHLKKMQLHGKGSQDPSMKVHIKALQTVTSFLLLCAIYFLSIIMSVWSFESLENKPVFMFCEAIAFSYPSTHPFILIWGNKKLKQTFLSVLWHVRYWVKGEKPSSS
As to the kind of experiment: Activity at human TAS2R46 expressed in HEK-293T-Galpha16-gustducin44 cells assessed as threshold concentration of compound at which point receptor detects compounds by measuring calcium response by FLIPR assay.

The target in assay [4] is T4, Taste receptor type 2 member 19 (Homo sapiens) (UniProt P59542).
T4 sequence (whole entry): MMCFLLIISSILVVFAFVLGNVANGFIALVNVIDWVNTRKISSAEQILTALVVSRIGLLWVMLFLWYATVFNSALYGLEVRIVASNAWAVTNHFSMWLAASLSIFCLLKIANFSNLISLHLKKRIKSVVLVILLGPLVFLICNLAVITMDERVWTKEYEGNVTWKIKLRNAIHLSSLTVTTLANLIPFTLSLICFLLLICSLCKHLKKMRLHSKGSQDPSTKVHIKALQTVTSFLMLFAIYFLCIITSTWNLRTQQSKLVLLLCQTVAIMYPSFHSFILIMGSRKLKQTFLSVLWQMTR
As to the kind of experiment: Activity at human TAS2R48 expressed in HEK-293T-Galpha16-gustducin44 cells assessed as threshold concentration of compound at which point receptor detects compounds by measuring calcium response by FLIPR assay.

As for `CC1=C[C@@H]2[C@@H]3C4C(=C(C)[C@@H]3[C@@]13[C@@H]2[C@@](C)(O)CC[C@H]1[C@H](C)C(=O)O[C@@H]13)[C@H]1OC(=O)[C@@H](C)[C@@H]1CC[C@]4(C)O` (some centres undefined), the Activity in assay [1] is 0.01 mM; in assay [2] it was 0.003 mM; in assay [3], 0.001 mM; in assay [4], 0.03 mM.
